Data reported in article PMC5515982, “Hair analysis for the biomonitoring of pesticide exposure: comparison with blood and urine in a rat model” (Archives of Toxicology, 2016).

What was measured:
Format in all cases: in vivo, rat
[1] = Concentration of pesticides and metabolites in plasma of rats after 90-day gavage exposure to a pesticide mixture; details: for Slope (linear fit), concentration in plasma versus level of exposure: exposure expressed as mg/kg per day, concentration as ng/mL, detected values only
Protocol: (§1) Eight rats were randomly assigned to each of the experimental groups. A low-calorie water gel that contained the pesticides was administered via gavage to these rats three times per week for 90 days. The doses of the pesticides mixture used for exposure were 4, 10, 20, 40, 100, 200, and 400 µg/kg of body weight. The exposure range was set as follows: The lowest dose was the lowest level allowing the detection of pesticides in hair after a 90-day exposure, based on preliminary experiments not detailed here. Testing lower levels would not have been relevant because some compounds would not be detected anymore (analytical limitation). In addition, for some other compounds, no differences were detected in the current experiment between the lowest level of exposure and the background exposure of the controls. The highest dose was set according to toxicity of compounds, which corresponded to 1/20 of the lowest LD50 (carbofuran). The animals were weighed before each administration in order to adapt the amount of pesticide-containing mixture to the animals’ weight.
(§2) The animals were shaved before the experiment began to ensure that the hair collected at the end of the study accurately reflected the 90-day period of exposure. White and black hairs were collected separately, placed in aluminum foil, and stored at −20 °C until analysis. Blood was collected in EDTA tube from the tail vein, 3 h after oral administration on Day 90. Each sampling (500–750 µL) was immediately centrifuged at 5000×g for 3 min at room temperature, and plasma was separated and stored at −80 °C before analysis. For urine collection, the rats were placed in individual metabolic cages (Type 304 stainless steel, Techniplast, Zwaag, Netherlands) immediately after gavage for 24 h (from Day 88 to Day 89). The urine was collected in refrigerated tubes over a 24-h period and was weighed before storage at −20 °C.
(§3) Depending on the compounds, only parent pesticides, only metabolites, or both parent and metabolites were analyzed in the biological matrices. The chemicals were analyzed as previously described (Chata et al. [2016]; Hardy et al. [2015]). Despite the different nature of the biological matrices analyzed (liquid vs. solid), method protocols were developed to ensure similarity so they could be reliably compared to the information obtained from each matrix, thereby ensuring that differences were not likely attributable to analytical bias. […] Because analytical background noise was absent from the chromatograms because tandem mass spectrometry was used, the approaches based on background noise for determining the limit of detection (LOD) were not applicable. The LOD was therefore determined as the lowest concentration that was detected in the samples analyzed during this study. Selectivity was ensured by analyte retention time and by the quantification transition to confirmation transition ratio that had to be lower than the 20% difference from the ratio obtained with standard compounds. The LOD ranged from 0.02 pg/mg for β-endosulfan to 2.7 pg/mg for dichlorodiphenyltrichloroethane (p,p′-DDT) in hair, from 0.2 pg/mL for trifluralin to 13.6 ng/mL for 2-isopropoxyphenol (2-IPP) in urine, and from 2.4 pg/mL for β-endosulfan to 679 pg/mL for p,p′-DDT in plasma. Because the analysis of parent pesticides and metabolites was conducted on the same hair sample, the addition of parent organophosphate isotope-labeled analog standards was not possible because their degradation into non-labeled dialkyl phosphate (DAP) during the analytical procedure would have hindered the analysis of DAP due to exposure. In hair, only organophosphate metabolites (not parents) were therefore quantified, and only qualitative results were obtained for parents.
(§4) The association between the level of exposure and the analyte concentration in the matrix (i.e., hair, urine, and plasma) was assessed by the Pearson product-moment correlation coefficient (R Pearson). […]

[2] = Influence of hair pigmentation: concentration in white hair versus pigmented hair; details: slope close to 1 = poor influence of pigmentation
Protocol: as §2
The influence of hair pigmentation on pesticide incorporation was assessed by comparing the concentration detected in white hair versus pigmented hair which were collected and analyzed separately from each animal. […] For the majority of the chemicals tested during the current study, pigmentation seemed to have a very limited effect on the concentration in hair, and only few compounds seemed to be pigmentation sensitive.

[3] = Concentration of pesticides and metabolites in hair of rats after 90-day gavage exposure to a pesticide mixture; details: for Slope (linear fit), concentration in hair versus level of exposure: exposure expressed as mg/kg per day, concentration as pg/mg, detected values only
Protocol: as §1, §2, §3, §4

[4] = Concentration of pesticides and metabolites in 24-h urine of rats after 90-day gavage exposure to a pesticide mixture; details: urine; for Slope (linear fit), concentration in urine versus level of exposure: exposure expressed as mg/kg per day, concentration as ng/mL, detected values only
Protocol: as §1, §2, §3, §4

Compound	Slope (linear fit), concentration in plasma versus level of exposure [1]	Slope, concentration in white hair versus pigmented hair [2]	Slope (linear fit), concentration in hair versus level of exposure [3]	Slope (linear fit), concentration in urine versus level of exposure [4]	Exposure level from which detected in plasma [1] [µg/kg]	Exposure level from which detected in hair [3] [µg/kg]	Concentration range in plasma (detection) ([1]; ND = not detected, whatever the level of exposure)	Exposure level from which detected in urine [4] [µg/kg]	Concentration in plasma relative to cypermethrin ([1]; at equal level of exposure)	Concentration in plasma relative to permethrin ([1]; at equal level of exposure)
CC(C)Oc1ccccc1O [2-IPP, 2-isopropoxyphenol]	10.4	0.692	26.3	1.0 E + 06						
O=C(O)c1cccc(Oc2ccccc2)c1 [3-PBA, 3-phenoxybenzoic acid]	422	1.070	7.08	1.5 E + 05						
CC1(C)Cc2cccc(O)c2O1 [Carbofuran phenol]	1.73	1.109	35.10	1.0 E + 06						
CC1(C)C(C=C(Cl)Cl)C1C(=O)O (stereo not drawn) [Cl2CA, 3-(2,2-dichlorovinyl)-2,2-dimethylcyclopropane-1-carboxylic acid]	139	0.498	49.20	1.0 E + 06						
CC1(C)C(C=C(Cl)C(F)(F)F)C1C(=O)O (stereo not drawn) [ClCF3CA, 3-(2-chloro-3,3,3-trifluoro-1-propenyl)-2,2-dimethylcyclopropane carboxylic acid]	9.79	0.220	5.22	1.6 E + 05						
CC1(C)C(C=C(Cl)Cl)C1C(=O)OC(C#N)c1cccc(Oc2ccccc2)c1 (stereo not drawn) [Cypermethrin]	10.1	0.495			10	200				
CCOP(O)(=S)OCC [DETP, diethylthiophosphate]	3.26	0.608	10.47	9.9 E + 05						
CCOP(=S)(OCC)Oc1cc(C)nc(C(C)C)n1 [Diazinon]							not detected			
ClC1=C(Cl)[C@]2(Cl)[C@@H]3[C@@H]4C[C@@H]([C@H]5O[C@@H]45)[C@@H]3[C@@]1(Cl)C2(Cl)Cl [Dieldrin]	305	1.000	427.8	2 069						
O=C(Nc1ccc(F)cc1F)c1cccnc1Oc1cccc(C(F)(F)F)c1 [Diflufenican]	15.2	0.937	35.94	99				20		
N#Cc1nn(-c2c(Cl)cc(C(F)(F)F)cc2Cl)c(N)c1[S+]([O-])C(F)(F)F (stereo not drawn) [Fipronil]		1.017	31.5	2 016				10		
CC1(C)C(C=C(Cl)Cl)C1C(=O)OCc1cccc(Oc2ccccc2)c1 (stereo not drawn) [Permethrin]	1.04				100					
CC1(C)C(/C=C(\Cl)C(F)(F)F)C1C(=O)OC(C#N)c1cccc(Oc2ccccc2)c1 (stereo not drawn) [λ-Cyhalothrin]	116	1.079	5.050		4	20			approximately 10 times	approximately 100 times
